Reference: patent US20230147257A1 (DONG-A ST CO., LTD., priority 2020, published 2023)
Read-outs that look alike come from different tables or passages of the source.

How the values were obtained:
Format in all cases: cell-based
[1] = target: T1, AhR (Homo sapiens, UniProt P35869); assay: In vitro assay 1: XRE-luciferase reporter assay, antagonism in human cell line (HepG2); settings: HepG2 XRE-luciferase, 6 hours, read-out: Assay 1: AhR-Luc Human Antagonism (IC50)
T1 construct: host or cells: HepG2
T1 sequence (P35869 11-848): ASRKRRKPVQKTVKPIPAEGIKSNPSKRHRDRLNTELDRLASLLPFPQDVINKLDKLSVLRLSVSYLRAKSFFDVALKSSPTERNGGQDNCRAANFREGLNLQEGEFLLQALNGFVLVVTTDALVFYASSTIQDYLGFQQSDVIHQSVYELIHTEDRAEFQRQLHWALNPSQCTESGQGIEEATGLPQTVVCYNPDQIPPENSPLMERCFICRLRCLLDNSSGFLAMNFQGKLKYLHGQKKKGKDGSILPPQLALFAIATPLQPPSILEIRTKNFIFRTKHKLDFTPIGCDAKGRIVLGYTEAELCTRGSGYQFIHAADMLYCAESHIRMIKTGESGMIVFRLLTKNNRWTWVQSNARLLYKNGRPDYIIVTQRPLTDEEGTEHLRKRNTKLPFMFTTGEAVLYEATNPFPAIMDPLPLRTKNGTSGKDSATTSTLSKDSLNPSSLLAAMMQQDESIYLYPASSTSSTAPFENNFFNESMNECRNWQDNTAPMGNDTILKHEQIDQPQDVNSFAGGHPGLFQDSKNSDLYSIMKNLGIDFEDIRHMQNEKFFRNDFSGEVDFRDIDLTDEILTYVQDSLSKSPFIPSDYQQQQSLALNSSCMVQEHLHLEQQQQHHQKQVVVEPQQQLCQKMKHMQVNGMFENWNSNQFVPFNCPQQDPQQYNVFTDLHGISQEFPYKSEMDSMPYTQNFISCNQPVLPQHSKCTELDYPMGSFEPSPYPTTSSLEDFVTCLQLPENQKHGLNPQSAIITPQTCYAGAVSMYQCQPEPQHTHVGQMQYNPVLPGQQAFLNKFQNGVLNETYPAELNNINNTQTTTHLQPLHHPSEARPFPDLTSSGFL
Outline: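 HepG2 cells carrying XRE-firefly luciferase (transient or stable) plus constitutive Nano-Luc control, stimulated 6 h with kynurenine (50 or 200 μM) with or without compound. Firefly/Nano-Luc ratio normalized to kynurenine-alone (maximum) and vehicle (minimum); IC50 by four-parameter nonlinear regression.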

[2] = target: T1, AhR; assay: In vitro assay 4: endogenous AhR activity assay (CYP1A1 and CYP1B1 mRNA, qRT-PCR, HepG2 cells); settings: TCDD 10 nM with compound 123 nM, 4 hours, mRNA relative to β-actin
Method: In Vitro Assay 4: Endogenous AhR Activity Assay
HepG2 cells were seeded in 12-well plate (3×10^5 cells/well). A day after seeding, the cells were treated with TCDD (10 nM) alone or with compounds (123 nM) for 4 hours. Total RNA was extracted using Trizol (Thermo Fisher Scientific). cDNA synthesis and quantitative RT-PCR (qRT-PCR) assays were performed using PrimeScript™ RT Master Mix (TAKARA) and TB Green™ Premix Ex Taq™ II (TAKARA) in accordance with manufacturer's instruction. For the measurement of endogenous AhR activity, relative mRNA levels of CYP1A1 and CYP1B1 were quantitated relative to β(beta)-actin mRNA by the comparative Ct (ΔΔCt) method. The percent inhibitions were calculated according to: […]

[3] = target: T1, AhR; assay: In vitro assay 3: XRE-luciferase reporter assay, agonism in human cell line (HepG2); settings: HepG2 XRE-Luc, tryptophan free medium, test compound alone, 6 hours
Text: In Vitro XRE-Luciferase Reporter Assay (In Vitro Assay 1, 2, 3)
AhR activation leads the induction of target gene expression such as CYP1A1 and CYP1B1 by AhR binding to AhR-responsive DNA elements also known as xenobiotics responsive elements (XRE). The assay for measuring AhR activity herein is the luciferase assay using cell lines transfected with luciferase reporter plasmid containing XREs at the upstream of the reporter gene. Cells transfected with XRE-luciferase reporter (XRE-Luc) plasmid drive luciferase activity reflecting activation and inhibition of AhR in the cells. In addition to transfection with XRE-reporter vector, cells were co-transfected with Nano-luciferase reporter gene construct (Nano-Luc) containing constitutively active promoter as internal control. Kynurenine (an endogenous AhR agonist) was used to stimulate cells to test antagonistic properties of the compounds. The half-maximal inhibitory concentration (IC50) or half-maximal effective concentration (EC50) value was calculated using nonlinear regression (four parameters) with Prism8.0 software (GraphPad).
In Vitro Assay 3: Agonism in Human Cell Line
HepG2 (human hepatoma cell line) cells co-transfected with XRE-Luc and Nano-Luc plasmids were plated in tryptophan free medium containing 1% of dialyzed fetal bovine serum and incubated overnight at 37° C. in a CO2 incubator. After 24 hours, cells were treated for 6 hours with test compounds or not. Firefly luciferase and Nano-luciferase activity was measured using Nano-glo Luciferase kit (Promega) and relative luciferase activity (Firefly/Nano-Luc) was used to calculate EC50 values. As a positive control, cells were incubated with TCDD. (EC50 Values are grouped as A, B, C and D, whereby A: EC50<0.1 μM; B: 0.1<EC50<1.0 μM; C: 1.0<EC50<10 μM; D: EC50>10 μM)

[4] = cells treated with kynurenine 200 μM (no *)
[5] = read-out: CYP1A1 (% Inhibition)
[6] = read-out: CYP1B1 (% Inhibition)
[7] = cells treated with kynurenine 50 μM (*)
[8] = read-out: Assay 3: AhR-Luc Human Agonism (EC50)
[9] = read-out: Assay 3: AhR-Luc Human Agonism (EC50, nM), class in brackets

Row | SMILES | IC50 [1, 4] | inhibition at 0.123 µM [2, 5] | inhibition at 0.123 µM [2, 6] | IC50 [1, 7] | EC50 [3, 8] | EC50 [3, 9]
1 | O=c1c2cc(-c3ccc(C(F)(F)F)cc3)nc(-c3cccnc3)c2ncn1[C@@H]1CCCC[C@@H]1O [Example 16, 3-((1R,2S)-2-hydroxycyclohexyl)-8-(pyridin-3-yl)-6-(4-(trifluoromethyl)phenyl)pyrido[3,4-d]pyrimidin-4(3H)-one] | < 10 nM | 99.6% | 100% |  |  | 
2 | Cn1cc(-c2nc(-c3ccc(C(F)(F)F)cc3)cc3c(=O)n([C@H]4CCCC[C@H]4O)cnc23)cn1 [Example 17, 3-((1S,2R)-2-hydroxycyclohexyl)-8-(1-methyl-1H-pyrazol-4-yl)-6-(4-(trifluoromethyl)phenyl)pyrido[3,4-d]pyrimidin-4(3H)-one] | > 1000 nM | 90.7% | 99.1% |  |  | 
3 | CCC(CO)n1cnc2c(-c3cccnc3)nc(-c3ccc(Cl)cc3)cc2c1=O (centres unmarked) [Example 51, 6-(4-chlorophenyl)-3-(1-hydroxybutan-2-yl)-8-(pyridin-3-yl)pyrido[3,4-d]pyrimidin-4(3H)-one] |  | 99.2% |  | < 10 nM | 701 nM | 
4 | O=c1c2cc(-c3ccc(Cl)cc3)nc(-c3cccnc3)c2ncn1CC(O)CO (centres unmarked) [Example 67, 6-(4-chlorophenyl)-3-(2,3-dihydroxypropyl)-8-(pyridin-3-yl)pyrido[3,4-d]pyrimidin-4(3H)-one] | < 10 nM |  |  |  | > 30000 nM | > 10000 nM
5 | CC(CO)n1cnc2c(-c3cnn(C)c3)nc(-c3ccc(C(F)(F)F)cc3)cc2c1=O (centres unmarked) [Example 45, 3-(1-hydroxypropan-2-yl)-8-(1-methyl-1H-pyrazol-4-yl)-6-(4-(trifluoromethyl)phenyl)pyrido[3,4-d]pyrimidin-4(3H)-one] |  | 99.6% | 100% | < 10 nM | 0.0428 nM | 
6 | CC(CNS(C)(=O)=O)n1cnc2c(-c3cccnc3)nc(-c3ccc(Cl)cc3)cc2c1=O (centres unmarked) [Example 89, N-(2-(6-(4-chlorophenyl)-4-oxo-8-(pyridin-3-yl)pyrido[3,4-d]pyrimidin-3(4H)-yl)propyl)methanesulfonamide] | < 10 nM |  |  |  | > 30000 nM | > 10000 nM
7 | O=c1c2cc(-c3ccc(Cl)nc3)nc(-c3cccnc3)c2ncn1[C@@H]1CC[C@H](O)C1 [Example 71, 6-(6-chloropyridin-3-yl)-3-((1R,3S)-3-hydroxycyclopentyl)-8-(pyridin-3-yl)pyrido[3,4-d]pyrimidin-4(3H)-one] | 10 to 100 nM |  |  |  | > 30000 nM | > 10000 nM
8 | O=c1c2cc(-c3ccc(C(F)(F)F)cc3)nc(-c3cccnc3)c2ncn1[C@H]1CC[C@H](O)CC1 [Example 57, 3-((1r,4r)-4-hydroxycyclohexyl)-8-(pyridin-3-yl)-6-(4-(trifluoromethyl)phenyl)pyrido[3,4-d]pyrimidin-4(3H)-one] |  |  |  | < 10 nM | 4480 nM | 
9 | O=c1c2cc(-c3ccc(Cl)cc3)nc(-c3cccnc3)c2ncn1C1CCN(S(=O)(=O)C2CC2)CC1 [Example 95, 6-(4-chlorophenyl)-3-(1-(cyclopropylsulfonyl)piperidin-4-yl)-8-(pyridin-3-yl)pyrido[3,4-d]pyrimidin-4(3H)-one] | < 10 nM |  |  |  | > 30000 nM | > 10000 nM
10 | CS(=O)(=O)N1CCC(n2cnc3c(-c4cccnc4)nc(-c4ccc(Cl)cc4)cc3c2=O)CC1 [Example 94, 6-(4-chlorophenyl)-3-(1-(methylsulfonyl)piperidin-4-yl)-8-(pyridin-3-yl)pyrido[3,4-d]pyrimidin-4(3H)-one] | < 10 nM |  |  |  | > 30000 nM | > 10000 nM
11 | CS(=O)(=O)CCn1cnc2c(-c3cccnc3)nc(-c3ccc(Cl)cc3)cc2c1=O [Example 77, 6-(4-chlorophenyl)-3-(2-(methylsulfonyl)ethyl)-8-(pyridin-3-yl)pyrido[3,4-d]pyrimidin-4(3H)-one] | < 10 nM |  |  |  | > 30000 nM | > 10000 nM
12 | CC(C)(O)Cn1cnc2c(-c3cccnc3)nc(-c3ccc(Cl)cc3)cc2c1=O [Example 38, 6-(4-chlorophenyl)-3-(2-hydroxy-2-methylpropyl)-8-(pyridin-3-yl)pyrido[3,4-d]pyrimidin-4(3H)-one] | < 10 nM | 100% |  |  | 1670 nM | 
13 | CC(CO)N1CNc2c(cc(-c3ccc(C(F)(F)F)cc3)nc2-c2cnn(C)c2)C1=O (centres unmarked) [Example 59, 3-(1-hydroxypropan-2-yl)-8-(1-methyl-1H-pyrazol-4-yl)-6-(4-(trifluoromethyl)phenyl)-2,3-dihydropyrido[3,4-d]pyrimidin-4(1H)-one] |  |  |  | < 10 nM | > 30000 nM | > 10000 nM
14 | Cn1cc(-c2nc(-c3ccc(C(F)(F)F)cc3)cc3c(=O)n([C@H]4CC[C@H](O)CC4)cnc23)cn1 [Example 8, 3-((1r,4r)-4-hydroxycyclohexyl)-8-(1-methyl-1H-pyrazol-4-yl)-6-(4-(trifluoromethyl)phenyl)pyrido[3,4-d]pyrimidin-4(3H)-one] |  |  |  | < 10 nM | > 30000 nM | > 10000 nM
15 | CCC(CO)n1cnc2c(-c3cccc(F)c3)nc(-c3ccc(Cl)cc3)cc2c1=O (centres unmarked) [Example 55, 6-(4-chlorophenyl)-8-(3-fluorophenyl)-3-(1-hydroxybutan-2-yl)pyrido[3,4-d]pyrimidin-4(3H)-one] |  |  |  | < 10 nM | 1370 nM | 
16 | CC(CO)n1cnc2c(-c3cnn(C)c3)nc(-c3ccc(Cl)cc3)cc2c1=O (centres unmarked) [Example 48, 6-(4-chlorophenyl)-3-(1-hydroxypropan-2-yl)-8-(1-methyl-1H-pyrazol-4-yl)pyrido[3,4-d]pyrimidin-4(3H)-one] |  |  |  | < 10 nM | > 30000 nM | > 10000 nM
